According to the RepoRT retention time repository (doi:10.1021/acs.analchem.1c00972):

Experiment: RP, Waters ACQUITY UPLC BEH C18, 100 × 1 mm, 1.7 µm, 50 °C, 0.3 mL/min, estimated dead time 0.17 min; A: water + 0.1% formic acid + 20 mM ammonium formate; B: methanol + 0.1% formic acid + 20 mM ammonium formate; gradient (min/%B) 0/0 15/100 21/100 22/0 30/0
Details: stereoisomer not certain

| SMILES | LC retention time [min] |
| --- | --- |
| CC(Cc1ccc(C(C)(C)C)cc1)CN1CCCCC1 (stereo not given) [Fenpropidin] | 13.8 |
| CNC(C)C(O)c1ccccc1 (stereo not given) [ephedrine] | 7.4 |
| CNC(=O)ON=C(SC)C(=O)N(C)C [Oxamyl] | 7.21 |
| CC(=NC#N)N(C)Cc1ccc(Cl)nc1 [Acetamiprid] | 9.33 |
| Cc1ccc(N)cc1Cl [3-Chloro-4-methylaniline] | 10.1 |
| CCC(C(N)=O)N1CCCC1=O (stereo not given) [levetiracetam] | 6.9 |
| NCCc1ccc(OC2OC(C(=O)O)C(O)C(O)C2O)c(O)c1 (stereo not given) [dopamine_glucuronide] | 9.2 |
| CCc1cc(C)cc(CC)c1-c1c(OC(=O)C(C)(C)C)n2n(c1=O)CCOCC2 [Pinoxaden] | 10.5 |
| COc1ccc2c3c1OC1C(OC4OC(C(=O)O)C(O)C(O)C4O)C=CC4C(C2)N(C)CCC341 (stereo not given) [codeine-6-glucuronide] | 11.4 |
| NC(=O)N=C1SCCN1Cc1ccc(Cl)nc1 [Thiacloprid amide] | 8.82 |
| CC(C)(C)C(=O)C(Oc1ccc(Cl)cc1)n1cncn1 (stereo not given) [Triadimefon] | 14.5 |
| O=C1CCC2(O)C3Cc4ccc(O)c5c4C2(CCN3CC2CC2)C1O5 (stereo not given) [Naltrexon] | 5.88 |
| Nc1c(Cl)cccc1Cl [2,6-Dichloroaniline] | 17.6 |
| CC(C)(C)c1ccc(CCOc2ncnc3ccccc23)cc1 [Fenazaquin] | 17.8 |
| Cc1csc(C)c1NC(=O)CCl [Dimethenamid-N-dealkylation] | 10.2 |
| CN(C)c1ccccc1 [N,N-Dimethylaniline] | 2.5 |
| CC(C)=NOCCOC(=O)C(C)Oc1ccc(Oc2cnc3cc(Cl)ccc3n2)cc1 (stereo not given) [Propaquizafop] | 16.8 |
| CN(C)CCc1ccc(O)cc1 [Hordenine] | 3.04 |
| COP(=O)(OC)Oc1nc(Cl)c(Cl)cc1Cl [Chlorpyrifos-methyl-oxon] | 13.7 |
| CCOC(=O)C1(c2ccccc2)CCC=CC1N(C)C (stereo not given) [Tilidine] | 9.57 |
| CC1OC(OC2CCC3(C=O)C4CCC5(C)C(C6=CC(=O)OC6)CCC5(O)C4CCC3(O)C2)C(O)C(O)C1O (stereo not given) [Convallatoxin] | 11.2 |
| Oc1ccc(C2(c3ccc(O)cc3)CCCCC2)cc1 [Bisphenol Z] | 16 |
| COC(=O)c1ccccc1C(=O)OC [Dimethylphthalat DMP] | 11.2 |
| Cc1ccc(OP(=O)(Oc2ccccc2)Oc2ccc(C)cc2)cc1 [Ditolyl phenyl phosphate] | 14 |
| Cc1ccccc1C(=O)Nc1cccc(OC(C)C)c1 [Mepronil] | 14.4 |
| CC12CC1(C)C(=O)N(c1cc(Cl)cc(Cl)c1)C2=O (stereo not given) [Procymidone] | 14.6 |
| O=C(OC1CC2CCC(C1)[N+]21CCCC1)C(O)(c1ccccc1)c1ccccc1 (stereo not given) [Trospium] | 14.2 |
| CC(c1ccc(O)cc1)c1ccc(O)cc1 [Bisphenol E] | 11.5 |
| NC1CCCCC1 [Cyclohexylamine] | 4.9 |

Further lines, results first:

| LC retention time [min] | SMILES |
| --- | --- |
| 7 | OCCc1c[nH]c2ccccc12 [3-(2-Hydroxyethyl)indole] |
| 4.8 | O=c1ccn(C2OC(CO)C(O)C2(F)F)c(=O)[nH]1 (stereo not given) [2',2'-Difluoro-2'-deoxyuridine] |
| 6.3 | CN(C)c1nc2c(ncn2C2OC(CO)C(O)C2O)c(=O)[nH]1 (stereo not given) [N2_N2-Dimethylguanosine] |
| 6.08 | Nc1nc2ccccc2[nH]1 [2-Aminobenzimidazole] |
| 8.54 | CC(C)NC(=O)NC(C)C [1.3-Diisopropylurea] |
| 13.3 | Cc1cnc(NC(=O)C2=C(O)c3ccccc3S(=O)(=O)N2C)s1 [meloxicam] |
| 11.5 | O=[N+]([O-])c1ccc(C2OC2c2ccc([N+](=O)[O-])cc2S(=O)(=O)O)c(S(=O)(=O)O)c1 (stereo not given) |
| 2.6 | NC(Cc1cnc[nH]1)C(=O)N1CCCC1C(=O)O (stereo not given) [His-Pro] |
| 9.82 | CC(C)(C)c1n[nH]c(=O)n(N)c1=O [Metribuzin-diketo] |
| 17.1 | CC(CCC(=O)O)C1CCC2C3C(O)CC4CC(O)CCC4(C)C3CCC12C (stereo not given) [Chenodeoxycholic acid] |
| 12.4 | CC12C=CC(=O)C=C1CCC1C2C(O)CC2(C)C1CCC2(O)C(=O)CO (stereo not given) [Prednisolone] |
| 13.5 | CC(=O)c1ccc2ccccc2c1 [2-Acetonaphthone] |
| 19 | CCCCCCCCCCCC(CC1OC(=O)C1CCCCCC)OC(=O)C(CC(C)C)NC=O (stereo not given) [Orlistat] |
| 11.5 | CCOC(=O)C1=CC(OC(CC)CC)C(NC(C)=O)C(N)C1 (stereo not given) [Oseltamivir] |
| 13.5 | CC1CN(C2CCCCCCCCCCC2)CC(C)O1 (stereo not given) [Dodemorph] |
| 16 | CC(C=CC1=C(C)CCCC1(C)C)=CC=CC(C)=CC(=O)O [9-cis-Retinoic acid] |
| 14 | CCCCCC(O)CC(=O)CCc1ccc(O)c(OC)c1 (stereo not given) [[6]-Gingerol] |
| 19.6 | CCCCCCCCC=CCCCCCCCCCCCC(N)=O [Erucamide] |

| LC retention time [min] | SMILES |
| --- | --- |
| 12.6 | CCCCOc1ccc(CC(=O)NO)cc1 [Bufexamac] |
| 18.3 | CCCCCCCCSCCOCCOCCOCCO [3,6,9-Trioxa-12-thia-eicosanol] |
| 18.5 | CC1CCC2(C(=O)O)CCC3(C)C(=CCC4C5(C)CCC(O)C(C)(C)C5CCC43C)C2C1C (stereo not given) [Ursolic acid] |
| 14.4 | O=C(NCc1ncc(C(F)(F)F)cc1Cl)c1c(Cl)cccc1Cl [Fluopicolide] |
| 8.71 | O=C(O)c1cccc(C(=O)O)c1 [Isophthalic acid] |
| 2.02 | CC1(C)CC(N)CC(C)(CN)C1 (stereo not given) [Isophorone diamine] |
| 15.4 | Cn1cc(C(=O)Nc2ccc(F)cc2-c2ccc(Cl)c(Cl)c2)c(C(F)F)n1 [Bixafen] |
| 13.8 | CC12CCC3C(=CCc4cc(O)ccc43)C1CCC2=O (stereo not given) [Equilin] |
| 12.1 | O=c1cc(-c2ccccc2)c2c(O)cc(O)cc2o1 [5,7-Dihydroxy-4-phenylcoumarin] |
| 14.3 | C=CNc1nc(NC(C)(C)C)nc(SC)n1 [Terbutryn-desaturated] |
| 14 | CCNC(=O)C(C)Oc1cccc2ccccc12 (stereo not given) [Desethyl-napropamide] |
| 15.2 | CC(=O)C1CCC2C3CC=C4CC(O)CCC4(C)C3CCC12C (stereo not drawn) [5-Pregnen-3.beta.-ol-20-one] |
| 13.6 | COCCCOc1cc(CC(CC(N)C(O)CC(C(=O)NCC(C)(C)C(N)=O)C(C)C)C(C)C)ccc1OC (stereo not given) [Aliskiren] |
| 19.9 | CCCCC(CC)COP(=O)(OCC(CC)CCCC)OCC(CC)CCCC (stereo not given) [Tris(2-Ethylhexyl) phosphate] |
| 8.03 | COc1ccc(NS(=O)(=O)c2ccc(N)cc2)nn1 [Sulfamethoxypyridazin] |
| 7.7 | O=C1CC[C@@H](C(=O)O)N1 [L-Pyroglutamic acid] |
| 8.02 | NS(=O)(=O)Cc1noc2ccccc12 [Zonisamide] |
| 12 | CC1(C)C(=O)Oc2ccc(OS(C)(=O)=O)cc21 [Ethofumesate-2-keto] |
